Results published in patent US10752591B2, “18-20 member bi-polycyclic compounds” (Haro Pharmaceutical Inc., priority 2014, dated 2020).

Test system: C2Cl2 cells
Experiment: Q-RT PCR of myofiber-degradation associated genes in long term C2Cl2 cultures
Type: cell-based
Conditions: day 10, normalized for RPLP0
Method: Quantitative RT-PCR was performed on RNA prepared from cell treated as in Example 9. At day 10 of the experiment, cells were rinsed in HBSS (without calcium or magnesium) and RNA was prepared using FastLane Cell cDNA Kit (Qiagen). Quantitative PCR was performed using Eppendorf and SYBR amplification mix (Sigma-Aldrich) using the gene specific primer combination given in Table 3. Data were normalized for ribosomal housekeeping gene RPLP0

SMILES: CC1(C)CCC(C)(C)c2cc(-c3cc4cc(C(=O)NO)ccc4[nH]3)ccc21 [Compound 13]
- expression of Atrogin: downregulates
- expression of myogenin: downregulates
